As usually defined, the IC50 is the midpoint of a concentration-inhibition curve.

Bridges are numbered along the chain shown (N, C = ends). Where no end group is shown, it is not given here.

The values below come from patent publication US6040309A, “Benzothiophene derivatives useful in therapy” (Pfizer, Inc., priority 1997, dated 2000).

The subject of one experiment is neointimal formation. Conditions: cited from earlier work.
Another experiment has as its target T1, ETA receptor (Rattus norvegicus, UniProt P26684).
T1 construct: Rat aortae are cleaned of connective tissue and fat and cut into helical strips; from tissue; host or cells: rat aorta, helical strips, endothelium removed
T1 sequence (P26684 21-426): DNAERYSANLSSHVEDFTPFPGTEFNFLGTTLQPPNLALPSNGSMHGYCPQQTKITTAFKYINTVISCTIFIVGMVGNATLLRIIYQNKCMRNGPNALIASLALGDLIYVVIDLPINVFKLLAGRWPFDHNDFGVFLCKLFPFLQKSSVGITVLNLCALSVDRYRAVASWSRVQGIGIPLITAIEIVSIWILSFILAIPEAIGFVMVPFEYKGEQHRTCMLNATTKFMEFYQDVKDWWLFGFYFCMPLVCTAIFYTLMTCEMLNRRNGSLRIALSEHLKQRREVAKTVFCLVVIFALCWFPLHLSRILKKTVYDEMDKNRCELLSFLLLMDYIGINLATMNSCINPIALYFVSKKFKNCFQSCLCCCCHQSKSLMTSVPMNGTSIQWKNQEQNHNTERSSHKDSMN
Description: In Vitro Vascular Smooth Muscle Activity, Rat Aorta (ET-1 contraction; Test B). Type of experiment: cell-based. The following applies: read-out: pA2 (converted). From the text: B. In Vitro Vascular Smooth Muscle Activity
Rat aortae are cleaned of connective tissue and fat and cut into helical strips approx 4 mm in width. The endothelium is removed by dragging the luminal surface of the tissue gently across filter paper moistened with Krebs solution of composition (mM) NaCl 130, KCl 5.6, NaHCO3 25, Glucose 11.1, NaH2 PO4 0.6, CaCl2 2.16, MgCl2 0.5, gassed with 95% O2 /5% CO2. The strips are mounted in isolated organ baths in Krebs solution under a resting tension of 1 gram. Organ bath solutions are maintained at 37° C. and continuously aerated with 95% O2 /5% CO2. […] After equilibration in the organ bath for 1 hour, tissues are contracted by the addition of KCl to a final concentration of 60 mM. The KCl is removed by replacing the Krebs solution, with two further washes with Krebs solution. To determine the potency of an ETA receptor antagonist, two tissues are cumulatively dosed with ET-1 (0.1 nM-1 μM); other tissues are dosed with ET-1 (0.1 nM-1 μM) in duplicate, beginning 30 minutes after the inclusion in the organ bath medium of the test compound. Sufficient tissues are used per experiment to generate dose-response curves to ET-1 in the absence and the presence of at least 3 concentrations of antagonist. Data are expressed as the mean±s.e.m. Dissociation constants (kb) of competitive antagonists are calculated by the method of Arunlakshana and Schild.

The next experiment has as its target rabbit ETA receptor. The following applies: cited from earlier work.
The target of another experiment is human ETA receptor. Conditions: cited from earlier work.

Regarding `CCCOc1ccc2c(c1)[C@@H](c1ccc(OC)cc1OCC(=O)O)[C@H](C(=O)O)[C@H]2c1ccc2c(c1)OCO2` [SB-209670], the “reduction in neointimal formation” value in the experiment on neointimal formation (relative to control animals) is recorded as 50%. As to `O=C(O)c1sc2cc(Cn3ccnc3)ccc2c1Sc1ccccc1O` [Example 71], at ETA receptor, the Kb was 0.229 µM.

As for “ET-1: isoform of endothelin, 21-amino acid peptide, potent vasoconstrictor (CSCSSLMDKECVYFCHLDIIW; disulfide 1-15, 3-11; ends not checked; UniProt P05305 53-73, looked up)”, the “effect on neointimal formation” value in the experiment with neointimal formation (in rats after balloon angioplasty) is “potentiate neointimal formation”. Regarding `COc1cccc(Sc2c(C(=O)O)sc3ccccc23)c1` [3-[(3-methoxyphenyl)sulfanyl]benzo[b]thiophene-2-carboxylic acid], the IC50 at rabbit ETA receptor was 5.9 µM. Take `O=C(O)c1sc2cc(OCc3cccnc3)ccc2c1Sc1ccccc1O` [Example 56]: at ETA receptor, the Kb is 0.0148 µM. Regarding `CC(C)Oc1c(C(=O)O)sc2ccc(OCc3ccccc3)cc12` [5-benzyloxy-3-isopropoxybenzo[b]thiophene-2-carboxylic acid], the IC50 at rabbit ETA receptor was 6 µM; at human ETA receptor it was 8.8 µM.
